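96-well plates; 48 h exposure; 5 concentrations. Endpoints by linear interpolation between flanking doses. Not reached: highest tested concentration assigned. The concentration for full growth arrest is given as TGI.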
What was measured:
Experiment in all cases: inhibition of tumour cell growth, NCI panel, 48 h
CCRF-CEM leukemia = test system: CCRF-CEM leukemia
DLD-1 colon = test system: DLD-1 colon
DMS 114 small cell lung = test system: DMS 114 small cell lung
HCT-116 colon = test system: HCT-116 colon
HL-60(TB) leukemia = test system: HL-60(TB) leukemia
KM12 colon = test system: KM12 colon
MOLT-4 leukemia = test system: MOLT-4 leukemia
RXF-631 renal = test system: RXF-631 renal
SF-295 CNS = test system: SF-295 CNS
SK-MEL-28 melanoma = test system: SK-MEL-28 melanoma
SK-OV-3 ovarian = test system: SK-OV-3 ovarian
SNB-19 CNS = test system: SNB-19 CNS
SR leukemia = test system: SR leukemia
SW-620 colon = test system: SW-620 colon
UO-31 renal = test system: UO-31 renal
CAKI-1 renal = test system: CAKI-1 renal
NCI-H522 lung = test system: NCI-H522 lung
XF 498 CNS = test system: XF 498 CNS
NCI/ADR-RES ovarian = test system: NCI/ADR-RES ovarian
T-47D breast = test system: T-47D breast

SMILES	TGI (CCRF-CEM leukemia)	TGI (DLD-1 colon)	TGI (DMS 114 small cell lung)	TGI (HCT-116 colon)	TGI (HL-60(TB) leukemia)	TGI (KM12 colon)	TGI (MOLT-4 leukemia)	TGI (RXF-631 renal)	TGI (SF-295 CNS)	TGI (SK-MEL-28 melanoma)	TGI (SK-OV-3 ovarian)	TGI (SNB-19 CNS)	TGI (SR leukemia)	TGI (SW-620 colon)	TGI (UO-31 renal)	TGI (CAKI-1 renal)	TGI (NCI-H522 lung)	TGI (XF 498 CNS)	TGI (NCI/ADR-RES ovarian)	TGI (T-47D breast)
O=C(Nc1cccc2ccccc12)Oc1ccccc1C1CCCCC1	53.7 µM	44.8 µM	41.9 µM	32.2 µM	64.2 µM	41.7 µM	55.3 µM	36.7 µM	31.3 µM	38.1 µM	67.7 µM	> 100 µM	57 µM	40 µM	34.6 µM					
Cn1cnc([N+](=O)[O-])c1Sc1nc2cc(Cl)c(F)cc2[nH]1		22.7 µM	20.7 µM	20.6 µM		36.6 µM	6.29 µM		> 100 µM	27.3 µM	61.9 µM	> 100 µM	12.4 µM	22.4 µM	27.6 µM	14.4 µM				
COC(=O)C(=O)C(C(=O)Nc1cccc(C)c1C)C1Sc2ccccc2NC1=O (configuration not stated)	> 25 µM	> 25 µM	19 µM	> 25 µM	> 25 µM	> 25 µM	> 25 µM		> 25 µM	> 25 µM	> 25 µM	> 25 µM	> 25 µM	> 25 µM	> 25 µM	> 25 µM	> 25 µM	> 25 µM		
O=c1cnn(C/C=C\CO)c(=O)[nH]1	> 100 µM				> 100 µM	> 100 µM				> 100 µM		> 100 µM	> 100 µM	> 100 µM	> 100 µM	> 100 µM	> 100 µM		> 100 µM	> 100 µM
